Experiments:
[1] = molecular target: Platelet-derived growth factor receptor alpha (Homo sapiens) (UniProt P16234)
[2] = molecular target: Serine/threonine-protein kinase tousled-like 1 (Homo sapiens) (UniProt Q9UKI8)
[3] = molecular target: Ribosomal protein S6 kinase alpha-3 (Homo sapiens) (UniProt P51812)
[4] = molecular target: Serine/threonine-protein kinase 32B (Homo sapiens) (UniProt Q9NY57)
[5] = molecular target: Serine/threonine-protein kinase PAK 4 (Homo sapiens) (UniProt O96013)
[6] = molecular target: Mitogen-activated protein kinase 6 (Homo sapiens) (UniProt Q16659)
[7] = molecular target: TGF-beta receptor type-2 (Homo sapiens) (UniProt P37173)
[8] = molecular target: Serine/threonine-protein kinase Chk2 (Homo sapiens) (UniProt O96017)
[9] = molecular target: Serine/threonine-protein kinase pim-3 (Homo sapiens) (UniProt Q86V86)
[10] = molecular target: Serine/threonine-protein kinase DCLK3 (Homo sapiens) (UniProt Q9C098)
[11] = molecular target: Activin receptor type-2B (Homo sapiens) (UniProt Q13705)
[12] = molecular target: T1, Alpha-1D adrenergic receptor (Homo sapiens) (UniProt P25100); settings: Compound concentration 10.0 uM
T1 sequence (whole entry): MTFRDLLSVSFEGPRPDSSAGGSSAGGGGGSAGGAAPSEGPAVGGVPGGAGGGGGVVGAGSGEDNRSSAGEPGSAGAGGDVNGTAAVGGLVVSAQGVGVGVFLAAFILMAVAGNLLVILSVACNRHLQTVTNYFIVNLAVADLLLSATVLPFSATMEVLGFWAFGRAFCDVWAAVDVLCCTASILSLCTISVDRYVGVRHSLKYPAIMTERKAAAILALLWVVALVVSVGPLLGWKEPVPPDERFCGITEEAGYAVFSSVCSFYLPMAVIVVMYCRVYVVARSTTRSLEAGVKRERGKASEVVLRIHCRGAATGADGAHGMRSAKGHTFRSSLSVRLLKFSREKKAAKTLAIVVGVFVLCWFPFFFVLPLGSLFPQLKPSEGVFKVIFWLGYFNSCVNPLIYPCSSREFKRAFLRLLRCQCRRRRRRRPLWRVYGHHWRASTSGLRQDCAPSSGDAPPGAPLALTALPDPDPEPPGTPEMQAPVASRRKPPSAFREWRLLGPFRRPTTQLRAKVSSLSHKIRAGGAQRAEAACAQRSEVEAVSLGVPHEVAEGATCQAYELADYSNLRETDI

[13] = molecular target: Mitogen-activated protein kinase kinase kinase 14 (Homo sapiens) (UniProt Q99558)
[14] = tested on: Tyrosine-protein kinase ABL1 (Homo sapiens), P00519 [H396P]
[15] = molecular target: Serine/threonine-protein kinase PAK 6 (Homo sapiens) (UniProt Q9NQU5)
[16] = molecular target: Mitogen-activated protein kinase kinase kinase kinase 3 (Homo sapiens) (UniProt Q8IVH8)
Mitogen-activated protein kinase kinase kinase kinase 3 (Homo sapiens), sequence (Q8IVH8 whole entry): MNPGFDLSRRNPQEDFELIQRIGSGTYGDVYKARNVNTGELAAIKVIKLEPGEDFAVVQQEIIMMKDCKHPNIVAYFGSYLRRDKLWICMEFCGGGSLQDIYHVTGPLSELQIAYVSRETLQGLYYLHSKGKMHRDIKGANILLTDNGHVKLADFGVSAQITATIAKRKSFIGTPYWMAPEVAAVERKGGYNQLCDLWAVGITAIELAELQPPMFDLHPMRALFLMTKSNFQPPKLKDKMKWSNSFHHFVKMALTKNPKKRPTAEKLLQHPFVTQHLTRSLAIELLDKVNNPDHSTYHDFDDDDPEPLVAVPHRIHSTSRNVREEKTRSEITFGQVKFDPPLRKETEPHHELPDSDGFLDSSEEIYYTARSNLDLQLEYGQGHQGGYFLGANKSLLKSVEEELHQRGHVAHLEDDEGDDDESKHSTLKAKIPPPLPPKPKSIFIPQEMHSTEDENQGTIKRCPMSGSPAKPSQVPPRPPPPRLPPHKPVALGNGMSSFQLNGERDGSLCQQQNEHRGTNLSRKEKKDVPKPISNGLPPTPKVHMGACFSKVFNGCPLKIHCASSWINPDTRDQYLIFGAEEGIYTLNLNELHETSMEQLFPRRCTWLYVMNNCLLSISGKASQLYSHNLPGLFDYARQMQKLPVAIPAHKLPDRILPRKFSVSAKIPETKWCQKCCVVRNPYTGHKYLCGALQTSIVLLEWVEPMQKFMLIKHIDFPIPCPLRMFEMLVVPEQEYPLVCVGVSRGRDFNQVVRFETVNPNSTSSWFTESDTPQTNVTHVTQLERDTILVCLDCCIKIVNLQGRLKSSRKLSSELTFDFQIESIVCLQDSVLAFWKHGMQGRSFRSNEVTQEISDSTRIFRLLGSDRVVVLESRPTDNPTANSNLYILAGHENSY

[17] = molecular target: Mitogen-activated protein kinase kinase kinase 9 (Homo sapiens) (UniProt P80192)
Mitogen-activated protein kinase kinase kinase 9 (Homo sapiens), sequence (P80192 whole entry, looked up): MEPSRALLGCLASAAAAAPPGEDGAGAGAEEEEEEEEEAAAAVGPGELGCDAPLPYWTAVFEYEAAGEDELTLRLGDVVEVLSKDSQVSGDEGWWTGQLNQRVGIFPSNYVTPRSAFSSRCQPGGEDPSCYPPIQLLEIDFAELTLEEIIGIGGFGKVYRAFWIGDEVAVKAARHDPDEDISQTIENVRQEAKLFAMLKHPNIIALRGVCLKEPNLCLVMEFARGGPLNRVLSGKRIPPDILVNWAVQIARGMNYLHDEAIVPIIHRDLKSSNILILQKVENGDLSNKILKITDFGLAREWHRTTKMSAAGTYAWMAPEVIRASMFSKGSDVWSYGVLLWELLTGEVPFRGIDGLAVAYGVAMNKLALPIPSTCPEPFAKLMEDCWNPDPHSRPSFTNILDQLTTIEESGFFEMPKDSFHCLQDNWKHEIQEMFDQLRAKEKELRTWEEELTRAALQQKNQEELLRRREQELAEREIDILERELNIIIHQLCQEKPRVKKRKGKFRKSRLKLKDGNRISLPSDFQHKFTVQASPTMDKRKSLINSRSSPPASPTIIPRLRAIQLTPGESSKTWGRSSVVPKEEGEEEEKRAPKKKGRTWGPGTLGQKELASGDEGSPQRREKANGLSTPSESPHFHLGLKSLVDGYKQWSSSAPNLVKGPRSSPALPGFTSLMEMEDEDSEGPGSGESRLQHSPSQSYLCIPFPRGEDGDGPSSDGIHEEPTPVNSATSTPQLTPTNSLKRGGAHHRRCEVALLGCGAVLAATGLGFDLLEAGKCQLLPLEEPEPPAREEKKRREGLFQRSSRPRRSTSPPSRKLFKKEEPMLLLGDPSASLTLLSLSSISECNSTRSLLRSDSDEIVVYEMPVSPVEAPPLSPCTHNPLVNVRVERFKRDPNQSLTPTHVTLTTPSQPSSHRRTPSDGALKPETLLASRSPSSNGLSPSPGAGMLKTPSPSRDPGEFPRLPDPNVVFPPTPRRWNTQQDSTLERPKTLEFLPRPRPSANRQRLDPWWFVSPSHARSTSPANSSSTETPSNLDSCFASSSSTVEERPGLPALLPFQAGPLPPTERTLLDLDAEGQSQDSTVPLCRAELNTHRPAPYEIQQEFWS

[18] = molecular target: Serine/threonine-protein kinase N1 (Homo sapiens) (UniProt Q16512)
[19] = molecular target: Cyclin-dependent kinase 2 homolog (Plasmodium falciparum (isolate 3D7)) (UniProt P61075)
Cyclin-dependent kinase 2 homolog (Plasmodium falciparum (isolate 3D7)), sequence (P61075 whole entry): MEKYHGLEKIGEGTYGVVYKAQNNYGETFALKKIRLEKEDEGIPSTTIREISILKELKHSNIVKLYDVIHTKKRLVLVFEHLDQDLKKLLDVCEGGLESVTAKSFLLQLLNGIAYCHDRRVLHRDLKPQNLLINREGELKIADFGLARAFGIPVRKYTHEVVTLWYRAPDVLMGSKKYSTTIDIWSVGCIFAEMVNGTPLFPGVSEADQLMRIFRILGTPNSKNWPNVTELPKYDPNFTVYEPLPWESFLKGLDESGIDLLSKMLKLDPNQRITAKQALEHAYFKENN

[20] = molecular target: T2, Ephrin type-A receptor 3 (Homo sapiens) (UniProt P29320)
T2 sequence (whole entry): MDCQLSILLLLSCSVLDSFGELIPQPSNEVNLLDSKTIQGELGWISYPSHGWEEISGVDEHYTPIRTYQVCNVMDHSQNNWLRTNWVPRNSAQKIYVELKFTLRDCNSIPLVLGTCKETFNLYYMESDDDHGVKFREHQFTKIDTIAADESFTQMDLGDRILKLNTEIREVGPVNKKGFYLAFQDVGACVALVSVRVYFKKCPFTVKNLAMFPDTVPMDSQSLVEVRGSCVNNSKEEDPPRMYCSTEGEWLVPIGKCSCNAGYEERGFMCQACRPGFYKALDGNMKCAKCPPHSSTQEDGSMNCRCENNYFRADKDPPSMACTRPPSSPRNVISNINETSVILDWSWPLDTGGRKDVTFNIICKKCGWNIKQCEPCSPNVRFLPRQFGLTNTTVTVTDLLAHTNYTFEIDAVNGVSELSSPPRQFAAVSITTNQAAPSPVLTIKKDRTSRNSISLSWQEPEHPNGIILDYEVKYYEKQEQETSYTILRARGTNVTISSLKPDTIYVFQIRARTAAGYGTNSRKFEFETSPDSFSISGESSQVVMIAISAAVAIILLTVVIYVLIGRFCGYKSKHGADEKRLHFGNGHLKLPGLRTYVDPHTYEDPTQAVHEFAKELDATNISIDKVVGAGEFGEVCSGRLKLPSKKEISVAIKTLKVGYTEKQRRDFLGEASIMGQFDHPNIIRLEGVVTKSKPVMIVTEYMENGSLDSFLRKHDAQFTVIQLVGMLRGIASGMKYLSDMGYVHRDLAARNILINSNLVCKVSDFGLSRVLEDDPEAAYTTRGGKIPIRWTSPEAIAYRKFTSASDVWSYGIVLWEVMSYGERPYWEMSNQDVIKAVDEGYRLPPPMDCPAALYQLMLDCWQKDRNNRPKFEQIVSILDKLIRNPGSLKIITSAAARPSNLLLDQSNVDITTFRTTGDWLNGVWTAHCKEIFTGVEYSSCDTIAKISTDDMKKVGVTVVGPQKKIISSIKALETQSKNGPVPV

[21] = molecular target: Receptor-interacting serine/threonine-protein kinase 2 (Homo sapiens) (UniProt O43353)
[22] = molecular target: Serine/threonine-protein kinase NIM1 (Homo sapiens) (UniProt Q8IY84)
Serine/threonine-protein kinase NIM1 (Homo sapiens), sequence (Q8IY84 whole entry): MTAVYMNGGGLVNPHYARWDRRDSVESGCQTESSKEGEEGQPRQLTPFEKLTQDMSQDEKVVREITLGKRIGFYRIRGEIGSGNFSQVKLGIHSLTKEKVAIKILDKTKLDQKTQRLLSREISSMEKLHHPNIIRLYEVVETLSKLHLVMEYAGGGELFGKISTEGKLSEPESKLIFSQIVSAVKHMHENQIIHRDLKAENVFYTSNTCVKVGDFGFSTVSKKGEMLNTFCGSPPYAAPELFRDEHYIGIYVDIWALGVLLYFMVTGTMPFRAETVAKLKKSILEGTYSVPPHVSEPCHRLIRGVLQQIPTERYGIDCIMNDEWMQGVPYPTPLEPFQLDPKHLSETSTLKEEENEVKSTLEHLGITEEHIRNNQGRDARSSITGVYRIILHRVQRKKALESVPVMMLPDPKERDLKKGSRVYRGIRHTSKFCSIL

[23] = molecular target: Serine/threonine-protein kinase Nek4 (Homo sapiens) (UniProt P51957)
[24] = molecular target: Cyclin-dependent kinase 13 (Homo sapiens) (UniProt Q14004)
Cyclin-dependent kinase 13 (Homo sapiens), sequence (Q14004 whole entry, looked up): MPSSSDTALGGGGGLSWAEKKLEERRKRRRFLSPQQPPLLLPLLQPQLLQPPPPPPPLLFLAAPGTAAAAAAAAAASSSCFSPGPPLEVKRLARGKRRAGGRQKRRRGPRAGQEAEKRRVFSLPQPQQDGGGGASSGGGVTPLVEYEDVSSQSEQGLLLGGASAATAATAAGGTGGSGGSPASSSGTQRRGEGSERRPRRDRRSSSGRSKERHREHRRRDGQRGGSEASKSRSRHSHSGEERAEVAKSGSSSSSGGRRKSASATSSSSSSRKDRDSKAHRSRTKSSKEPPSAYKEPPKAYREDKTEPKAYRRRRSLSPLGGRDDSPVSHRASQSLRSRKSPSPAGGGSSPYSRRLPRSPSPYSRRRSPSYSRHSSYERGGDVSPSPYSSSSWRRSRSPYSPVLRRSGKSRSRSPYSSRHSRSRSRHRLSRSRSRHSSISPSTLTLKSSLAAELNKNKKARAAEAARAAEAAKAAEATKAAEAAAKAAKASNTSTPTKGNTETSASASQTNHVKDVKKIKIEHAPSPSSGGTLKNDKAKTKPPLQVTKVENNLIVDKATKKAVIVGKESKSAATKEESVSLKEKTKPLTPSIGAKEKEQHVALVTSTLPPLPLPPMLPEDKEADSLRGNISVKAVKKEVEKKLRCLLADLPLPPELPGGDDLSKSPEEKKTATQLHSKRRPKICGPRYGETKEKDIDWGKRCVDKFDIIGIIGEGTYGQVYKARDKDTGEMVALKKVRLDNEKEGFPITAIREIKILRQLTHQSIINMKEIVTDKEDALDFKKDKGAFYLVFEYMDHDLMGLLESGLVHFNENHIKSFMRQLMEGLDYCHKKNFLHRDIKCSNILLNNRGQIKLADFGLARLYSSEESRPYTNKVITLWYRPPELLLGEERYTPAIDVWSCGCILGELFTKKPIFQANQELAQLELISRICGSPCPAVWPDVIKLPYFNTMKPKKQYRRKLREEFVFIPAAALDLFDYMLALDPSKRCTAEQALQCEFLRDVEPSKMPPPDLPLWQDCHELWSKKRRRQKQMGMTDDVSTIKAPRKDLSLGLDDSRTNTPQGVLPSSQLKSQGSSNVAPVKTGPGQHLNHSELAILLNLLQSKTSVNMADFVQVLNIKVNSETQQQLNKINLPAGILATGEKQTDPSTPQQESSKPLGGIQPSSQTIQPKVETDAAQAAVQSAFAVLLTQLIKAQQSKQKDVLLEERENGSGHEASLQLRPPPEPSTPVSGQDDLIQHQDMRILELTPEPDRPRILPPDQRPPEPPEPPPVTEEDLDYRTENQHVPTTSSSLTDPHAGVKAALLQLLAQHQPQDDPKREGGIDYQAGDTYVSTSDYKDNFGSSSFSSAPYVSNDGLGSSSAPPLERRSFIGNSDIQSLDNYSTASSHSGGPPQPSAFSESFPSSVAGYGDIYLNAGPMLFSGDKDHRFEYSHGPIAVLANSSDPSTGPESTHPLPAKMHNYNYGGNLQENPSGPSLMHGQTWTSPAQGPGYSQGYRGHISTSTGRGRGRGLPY

[25] = Compound concentration 100.0 nM
[26] = Compound concentration 1000.0 nM

Ribosomal protein S6 kinase alpha-3 (Homo sapiens), sequence (P51812 whole entry): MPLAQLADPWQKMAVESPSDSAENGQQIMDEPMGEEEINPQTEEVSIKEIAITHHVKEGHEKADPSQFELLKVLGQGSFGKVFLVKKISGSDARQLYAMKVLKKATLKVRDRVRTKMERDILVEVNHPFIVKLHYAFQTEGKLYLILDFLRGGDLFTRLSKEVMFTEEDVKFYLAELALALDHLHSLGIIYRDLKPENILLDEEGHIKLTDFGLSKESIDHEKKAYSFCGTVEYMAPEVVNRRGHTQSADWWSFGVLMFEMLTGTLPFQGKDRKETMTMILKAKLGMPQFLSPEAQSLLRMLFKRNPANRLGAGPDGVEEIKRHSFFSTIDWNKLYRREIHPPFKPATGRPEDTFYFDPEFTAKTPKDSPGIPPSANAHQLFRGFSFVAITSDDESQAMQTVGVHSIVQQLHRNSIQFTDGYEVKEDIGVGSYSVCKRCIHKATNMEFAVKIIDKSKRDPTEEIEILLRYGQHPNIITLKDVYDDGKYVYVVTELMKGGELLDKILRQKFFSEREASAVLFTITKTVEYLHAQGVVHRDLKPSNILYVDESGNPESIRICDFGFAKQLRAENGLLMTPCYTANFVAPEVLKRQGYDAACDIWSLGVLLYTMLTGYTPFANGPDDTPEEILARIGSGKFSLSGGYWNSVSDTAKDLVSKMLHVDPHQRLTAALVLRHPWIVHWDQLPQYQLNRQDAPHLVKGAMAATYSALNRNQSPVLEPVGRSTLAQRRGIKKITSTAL

C[C@@H]1CN(c2cc(-c3n[nH]c4ccc(OC5(C)CC5)cc34)ncn2)C[C@H](C)O1 [MLi-2]
inactive: residual activity [1, 25] 75% | residual activity [2, 25] 94% | residual activity [3, 25] 85% | residual activity [4, 25] 92% | residual activity [5, 25] 97% | residual activity [6, 25] 91% | residual activity [7, 25] 100% | residual activity [8, 25] 68% | residual activity [9, 25] 100% | residual activity [10, 25] 92% | residual activity [11, 25] 99% | inhibition [12] 3.26% | residual activity [13, 25] 64% | residual activity [14, 25] 71% | residual activity [15, 25] 100% | residual activity [16, 25] 88% | residual activity [17, 25] 100% | residual activity [18, 25] 91% | residual activity [19, 25] 80% | residual activity [20, 25] 93% | residual activity [21, 25] 100% | residual activity [22, 25] 72% | residual activity [23, 25] 84% | residual activity [24, 25] 84%

C[C@@H]1CN(c2cc(-c3nn(C)c4ccc(OC5(C)CC5)cc34)ncn2)C[C@H](C)O1 [MLi-2-NC]
inactive: residual activity [1, 26] 83% | residual activity [2, 26] 100% | residual activity [3, 26] 91% | residual activity [4, 26] 100% | residual activity [5, 26] 93% | residual activity [6, 26] 97% | residual activity [7, 26] 73% | residual activity [8, 26] 97% | residual activity [9, 26] 92% | residual activity [10, 26] 77% | residual activity [11, 26] 98% | inhibition [12] 10.2% | residual activity [13, 26] 100% | residual activity [14, 26] 70% | residual activity [15, 26] 100% | residual activity [16, 26] 100% | residual activity [17, 26] 100% | residual activity [18, 26] 100% | residual activity [19, 26] 94% | residual activity [20, 26] 68% | residual activity [21, 26] 100% | residual activity [22, 26] 74% | residual activity [23, 26] 60% | residual activity [24, 26] 86%
